Results reported in ChEMBL document CHEMBL1926681, “Novel inhibitors of epidermal growth factor receptor: (4-(Arylamino)-7H-pyrrolo[2,3-d]pyrimidin-6-yl)(1H-indol-2-yl)methanones and (1H-indol-2-yl)(4-(phenylamino)thieno[2,3-d]pyrimidin-6-yl)methanones” (Bioorg Med Chem, 2012).
The source made the active and inactive calls. No cut-off for these calls is given here.

Tests used:
[1] = molecular target: T1, Epidermal growth factor receptor (Homo sapiens, UniProt P00533); assay: Inhibition of EGFR using poly(Glu,Tyr)4:1 as substrate and [gamma33P]ATP at 1 uM after 60 mins by scintillation counting
[2] = molecular target: T1, Epidermal growth factor receptor; assay: Inhibition of EGFR using poly(Glu,Tyr)4:1 as substrate and [gamma33P]ATP after 60 mins by scintillation counting
[3] = molecular target: Receptor tyrosine-protein kinase erbB-2 (Homo sapiens) (UniProt P04626); assay: Inhibition of Erbb2 using poly(Glu,Tyr)4:1 as substrate and [gamma33P]ATP at 1 uM after 60 mins by scintillation counting
[4] = molecular target: Vascular endothelial growth factor receptor 2 (Homo sapiens) (UniProt P35968); assay: Inhibition of VEGFR2 using poly(Glu,Tyr)4:1 as substrate and [gamma33P]ATP at 1 uM after 60 mins by scintillation counting
[5] = molecular target: Tyrosine-protein kinase ABL1 (Homo sapiens) (UniProt P00519); assay: Inhibition of ABL1 using poly(Ala, Glu, Lys, Tyr) as substrate and [gamma33P]ATP at 1 uM after 60 mins by scintillation counting
[6] = molecular target: Hepatocyte growth factor receptor (Homo sapiens) (UniProt P08581); assay: Inhibition of MET using poly(Ala, Glu, Lys, Tyr) as substrate and [gamma33P]ATP at 1 uM after 60 mins by scintillation counting
[7] = molecular target: T1, Epidermal growth factor receptor; assay: Inhibition of EGFR autophosphorylation in EGF-stimulated human A431 cells after 1 hr by immunoblotting; type: cell-based, A-431
[8] = Cytotoxicity against human BXF 1218L cells after 4 days by propidium iodide staining-based fluorometric analysis; type: functional, cell-based; details: 96 h
[9] = Cytotoxicity against human BXF 1352L cells after 4 days by propidium iodide staining-based fluorometric analysis; type: functional, cell-based; details: 96 h
[10] = Cytotoxicity against human BXF T24 cells after 4 days by propidium iodide staining-based fluorometric analysis; type: functional, cell-based; details: T-24, 96 h
[11] = Cytotoxicity against human CXF 269L cells after 4 days by propidium iodide staining-based fluorometric analysis; type: functional, cell-based; details: 96 h
[12] = Cytotoxicity against human DIFI cells after 4 days by propidium iodide staining-based fluorometric analysis; type: functional, cell-based; details: 96 h
[13] = system: HCT-116; assay: Cytotoxicity against human HCT116 cells after 4 days by propidium iodide staining-based fluorometric analysis; type: functional, cell-based; details: HCT-116, 96 h
[14] = system: HT-29; assay: Cytotoxicity against human HT-29 cells after 4 days by propidium iodide staining-based fluorometric analysis; type: functional, cell-based; details: HT-29, 96 h
[15] = system: RKO; assay: Cytotoxicity against human RKO cells after 4 days by propidium iodide staining-based fluorometric analysis; type: functional, cell-based; details: 96 h
[16] = Cytotoxicity against human GXF251L cells after 4 days by propidium iodide staining-based fluorometric analysis; type: functional, cell-based; details: GXF 251L, 96 h
[17] = system: MKN-45; assay: Cytotoxicity against human MKN45 cells after 4 days by propidium iodide staining-based fluorometric analysis; type: functional, cell-based; details: MKN-45, 96 h
[18] = system: CAL-27; assay: Cytotoxicity against human CAL27 cells after 4 days by propidium iodide staining-based fluorometric analysis; type: functional, cell-based; details: CAL-27, 96 h
[19] = Cytotoxicity against human LIXF 575L cells after 4 days by propidium iodide staining-based fluorometric analysis; type: functional, cell-based; details: 96 h
[20] = system: NCI-H460; assay: Cytotoxicity against human H460 cells after 4 days by propidium iodide staining-based fluorometric analysis; type: functional, cell-based; details: NCI-H460, 96 h
[21] = Cytotoxicity against human LXFA 289L cells after 4 days by propidium iodide staining-based fluorometric analysis; type: functional, cell-based; details: 96 h
[22] = Cytotoxicity against human LXFA 526L cells after 4 days by propidium iodide staining-based fluorometric analysis; type: functional, cell-based; details: 96 h
[23] = Cytotoxicity against human LXFA 629L cells after 4 days by propidium iodide staining-based fluorometric analysis; type: functional, cell-based; details: 96 h
[24] = Cytotoxicity against human LXFL 1121L cells after 4 days by propidium iodide staining-based fluorometric analysis; type: functional, cell-based; details: 96 h
[25] = Cytotoxicity against human LXFL 529L cells after 4 days by propidium iodide staining-based fluorometric analysis; type: functional, cell-based; details: 96 h
[26] = Cytotoxicity against human MAXF 401NL cells after 4 days by propidium iodide staining-based fluorometric analysis; type: functional, cell-based; details: 96 h
[27] = system: MCF7; assay: Cytotoxicity against human MCF7 cells after 4 days by propidium iodide staining-based fluorometric analysis; type: functional, cell-based; details: MCF7, 96 h
[28] = Cytotoxicity against human MDA231 cells after 4 days by propidium iodide staining-based fluorometric analysis; type: functional, cell-based; details: MDA-MB-231, 96 h
[29] = Cytotoxicity against human MEXF 1341L cells after 4 days by propidium iodide staining-based fluorometric analysis; type: functional, cell-based; details: 96 h
[30] = Cytotoxicity against human MEXF 276L cells after 4 days by propidium iodide staining-based fluorometric analysis; type: functional, cell-based; details: MEXF276L, 96 h
[31] = Cytotoxicity against human MEXF 462NL cells after 4 days by propidium iodide staining-based fluorometric analysis; type: functional, cell-based; details: 96 h
[32] = Cytotoxicity against human OVXF 899L cells after 4 days by propidium iodide staining-based fluorometric analysis; type: functional, cell-based; details: 96 h
[33] = system: OVCAR-3; assay: Cytotoxicity against human OVCAR3 cells after 4 days by propidium iodide staining-based fluorometric analysis; type: functional, cell-based; details: OVCAR-3, 96 h
[34] = Cytotoxicity against human PAXF 1657L cells after 4 days by propidium iodide staining-based fluorometric analysis; type: functional, cell-based; details: 96 h
[35] = Cytotoxicity against human PAXF 546L cells after 4 days by propidium iodide staining-based fluorometric analysis; type: functional, cell-based; details: 96 h
[36] = system: PANC-1; assay: Cytotoxicity against human PANC1 cells after 4 days by propidium iodide staining-based fluorometric analysis; type: functional, cell-based; details: PANC-1, 96 h
[37] = system: CWR22R; assay: Cytotoxicity against human 22Rv1 cells after 4 days by propidium iodide staining-based fluorometric analysis; type: functional, cell-based; details: 22Rv1, 96 h
[38] = system: DU-145; assay: Cytotoxicity against human DU145 cells after 4 days by propidium iodide staining-based fluorometric analysis; type: functional, cell-based; details: DU-145, 96 h
[39] = system: LNCaP; assay: Cytotoxicity against human LNCAP cells after 4 days by propidium iodide staining-based fluorometric analysis; type: functional, cell-based; details: 96 h
[40] = Cytotoxicity against human PC3M cells after 4 days by propidium iodide staining-based fluorometric analysis; type: functional, cell-based; details: PC-3M, 96 h
[41] = Cytotoxicity against human PXF 1118L cells after 4 days by propidium iodide staining-based fluorometric analysis; type: functional, cell-based; details: 96 h
[42] = Cytotoxicity against human PXF 1752L cells after 4 days by propidium iodide staining-based fluorometric analysis; type: functional, cell-based; details: 96 h
[43] = Cytotoxicity against human PXF 698L cells after 4 days by propidium iodide staining-based fluorometric analysis; type: functional, cell-based; details: 96 h
[44] = Cytotoxicity against human RXF 1781L cells after 4 days by propidium iodide staining-based fluorometric analysis; type: functional, cell-based; details: 96 h
[45] = Cytotoxicity against human RXF 393NL cells after 4 days by propidium iodide staining-based fluorometric analysis; type: functional, cell-based; details: 96 h
[46] = Cytotoxicity against human RXF 486L cells after 4 days by propidium iodide staining-based fluorometric analysis; type: functional, cell-based; details: 96 h
[47] = system: SAOS-2; assay: Cytotoxicity against human Saos2 cells after 4 days by propidium iodide staining-based fluorometric analysis; type: functional, cell-based; details: SAOS-2, 96 h, read-out: IC50
[48] = system: TE-671; assay: Cytotoxicity against human TE671 cells after 4 days by propidium iodide staining-based fluorometric analysis; type: functional, cell-based; details: TE-671, 96 h
[49] = Cytotoxicity against human UXF 1138L cells after 4 days by propidium iodide staining-based fluorometric analysis; type: functional, cell-based; details: 96 h

T1 sequence (P00533 whole entry): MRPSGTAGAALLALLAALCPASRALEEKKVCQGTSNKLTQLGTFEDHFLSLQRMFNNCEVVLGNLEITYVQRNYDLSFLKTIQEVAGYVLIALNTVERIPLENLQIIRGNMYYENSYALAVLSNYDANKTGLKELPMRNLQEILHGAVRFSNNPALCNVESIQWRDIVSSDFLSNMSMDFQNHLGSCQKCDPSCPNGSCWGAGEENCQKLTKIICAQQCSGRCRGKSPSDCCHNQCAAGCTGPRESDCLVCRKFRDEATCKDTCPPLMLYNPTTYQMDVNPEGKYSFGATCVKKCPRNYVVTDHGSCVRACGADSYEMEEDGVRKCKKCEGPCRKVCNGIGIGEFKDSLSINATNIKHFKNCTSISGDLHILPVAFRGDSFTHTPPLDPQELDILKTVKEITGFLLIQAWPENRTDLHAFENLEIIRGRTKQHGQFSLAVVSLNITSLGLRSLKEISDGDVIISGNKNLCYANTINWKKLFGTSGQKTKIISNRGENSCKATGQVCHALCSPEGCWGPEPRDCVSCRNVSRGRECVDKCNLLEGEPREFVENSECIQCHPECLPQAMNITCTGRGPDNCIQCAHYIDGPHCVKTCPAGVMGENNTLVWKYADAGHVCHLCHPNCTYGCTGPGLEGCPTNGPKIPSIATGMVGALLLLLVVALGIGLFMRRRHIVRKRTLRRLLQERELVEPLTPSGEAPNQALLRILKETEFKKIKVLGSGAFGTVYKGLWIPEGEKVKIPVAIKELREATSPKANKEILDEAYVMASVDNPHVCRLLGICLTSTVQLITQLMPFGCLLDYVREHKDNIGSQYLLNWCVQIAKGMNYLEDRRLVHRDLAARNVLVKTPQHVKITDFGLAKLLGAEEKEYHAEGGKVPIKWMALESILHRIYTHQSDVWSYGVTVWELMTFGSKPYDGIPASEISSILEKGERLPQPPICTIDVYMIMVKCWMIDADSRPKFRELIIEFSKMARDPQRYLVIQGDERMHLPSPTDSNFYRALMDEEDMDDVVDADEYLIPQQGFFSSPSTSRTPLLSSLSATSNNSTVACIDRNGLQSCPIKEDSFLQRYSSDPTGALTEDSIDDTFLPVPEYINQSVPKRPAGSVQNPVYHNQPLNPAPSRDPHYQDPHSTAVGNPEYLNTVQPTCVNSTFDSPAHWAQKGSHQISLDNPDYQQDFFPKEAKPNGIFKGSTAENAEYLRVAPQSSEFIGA
Sequence of Vascular endothelial growth factor receptor 2 (Homo sapiens) (P35968 whole entry): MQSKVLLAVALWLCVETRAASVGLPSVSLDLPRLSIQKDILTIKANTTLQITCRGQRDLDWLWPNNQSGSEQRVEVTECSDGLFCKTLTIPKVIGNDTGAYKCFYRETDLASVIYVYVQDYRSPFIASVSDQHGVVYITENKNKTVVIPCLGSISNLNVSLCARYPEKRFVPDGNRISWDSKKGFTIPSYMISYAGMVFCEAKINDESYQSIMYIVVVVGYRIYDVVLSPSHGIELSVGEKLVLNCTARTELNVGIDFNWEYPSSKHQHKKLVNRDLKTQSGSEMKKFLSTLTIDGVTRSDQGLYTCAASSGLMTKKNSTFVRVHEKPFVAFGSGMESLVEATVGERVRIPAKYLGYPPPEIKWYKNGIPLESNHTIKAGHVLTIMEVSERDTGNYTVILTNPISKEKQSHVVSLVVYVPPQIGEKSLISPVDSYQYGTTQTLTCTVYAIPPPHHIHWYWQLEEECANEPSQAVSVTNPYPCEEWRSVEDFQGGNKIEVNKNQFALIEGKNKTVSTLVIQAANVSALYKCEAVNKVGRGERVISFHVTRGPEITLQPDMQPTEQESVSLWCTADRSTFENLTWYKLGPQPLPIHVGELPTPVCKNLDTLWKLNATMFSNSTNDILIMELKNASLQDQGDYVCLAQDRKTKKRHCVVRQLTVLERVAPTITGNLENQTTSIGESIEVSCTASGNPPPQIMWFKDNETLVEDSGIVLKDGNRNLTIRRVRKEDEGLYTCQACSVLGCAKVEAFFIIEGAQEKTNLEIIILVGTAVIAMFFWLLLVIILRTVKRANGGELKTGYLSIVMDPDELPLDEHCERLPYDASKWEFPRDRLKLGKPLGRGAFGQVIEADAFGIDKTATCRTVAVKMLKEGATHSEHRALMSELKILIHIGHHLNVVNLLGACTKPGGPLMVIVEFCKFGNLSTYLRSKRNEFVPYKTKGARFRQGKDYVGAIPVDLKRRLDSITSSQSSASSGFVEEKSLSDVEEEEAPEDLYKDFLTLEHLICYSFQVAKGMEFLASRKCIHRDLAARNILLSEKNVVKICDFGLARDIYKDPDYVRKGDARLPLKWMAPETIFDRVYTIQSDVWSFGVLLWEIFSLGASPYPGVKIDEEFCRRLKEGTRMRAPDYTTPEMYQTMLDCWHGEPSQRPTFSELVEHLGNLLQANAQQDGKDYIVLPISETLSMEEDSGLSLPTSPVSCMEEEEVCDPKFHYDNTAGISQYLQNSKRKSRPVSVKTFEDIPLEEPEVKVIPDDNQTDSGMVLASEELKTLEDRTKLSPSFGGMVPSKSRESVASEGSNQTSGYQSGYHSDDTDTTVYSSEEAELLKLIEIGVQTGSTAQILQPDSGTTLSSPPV
Sequence of Hepatocyte growth factor receptor (Homo sapiens) (P08581 whole entry): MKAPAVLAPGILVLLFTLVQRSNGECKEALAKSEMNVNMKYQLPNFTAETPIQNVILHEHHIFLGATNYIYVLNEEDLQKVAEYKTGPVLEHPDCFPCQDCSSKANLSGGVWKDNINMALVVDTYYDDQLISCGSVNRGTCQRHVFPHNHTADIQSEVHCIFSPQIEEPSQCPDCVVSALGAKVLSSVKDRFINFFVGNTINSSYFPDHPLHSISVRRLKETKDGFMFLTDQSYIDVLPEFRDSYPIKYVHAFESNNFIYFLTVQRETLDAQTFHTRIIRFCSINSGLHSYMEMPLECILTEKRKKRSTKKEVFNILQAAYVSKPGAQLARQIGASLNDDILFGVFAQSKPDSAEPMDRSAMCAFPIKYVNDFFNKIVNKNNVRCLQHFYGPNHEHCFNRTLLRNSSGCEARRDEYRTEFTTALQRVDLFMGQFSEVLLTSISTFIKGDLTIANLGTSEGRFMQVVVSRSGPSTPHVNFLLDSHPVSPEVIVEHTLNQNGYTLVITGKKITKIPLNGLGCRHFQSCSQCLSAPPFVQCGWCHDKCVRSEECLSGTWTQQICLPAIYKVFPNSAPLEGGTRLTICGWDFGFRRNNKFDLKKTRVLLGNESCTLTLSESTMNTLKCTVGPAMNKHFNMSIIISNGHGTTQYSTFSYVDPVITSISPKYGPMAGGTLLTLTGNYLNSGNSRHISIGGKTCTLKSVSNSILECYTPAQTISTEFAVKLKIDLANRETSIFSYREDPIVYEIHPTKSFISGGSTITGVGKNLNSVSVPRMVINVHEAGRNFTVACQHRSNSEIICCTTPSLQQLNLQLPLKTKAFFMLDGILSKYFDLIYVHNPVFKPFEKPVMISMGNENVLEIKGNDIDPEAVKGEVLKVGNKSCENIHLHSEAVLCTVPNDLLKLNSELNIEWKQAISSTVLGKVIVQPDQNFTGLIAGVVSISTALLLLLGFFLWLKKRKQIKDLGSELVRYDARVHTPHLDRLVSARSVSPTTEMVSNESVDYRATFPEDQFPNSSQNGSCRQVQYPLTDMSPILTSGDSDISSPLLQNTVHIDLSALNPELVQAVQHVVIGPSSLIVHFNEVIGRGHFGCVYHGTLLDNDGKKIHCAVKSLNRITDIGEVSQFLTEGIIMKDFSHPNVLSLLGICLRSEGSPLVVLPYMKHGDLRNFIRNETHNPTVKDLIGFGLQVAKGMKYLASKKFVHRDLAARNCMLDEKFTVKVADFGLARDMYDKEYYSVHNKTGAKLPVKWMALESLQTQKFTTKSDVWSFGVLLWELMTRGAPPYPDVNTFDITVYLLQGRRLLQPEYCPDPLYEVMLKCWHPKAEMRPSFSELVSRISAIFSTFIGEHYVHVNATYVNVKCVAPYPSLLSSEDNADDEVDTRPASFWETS
Sequence of Tyrosine-protein kinase ABL1 (Homo sapiens) (P00519 whole entry): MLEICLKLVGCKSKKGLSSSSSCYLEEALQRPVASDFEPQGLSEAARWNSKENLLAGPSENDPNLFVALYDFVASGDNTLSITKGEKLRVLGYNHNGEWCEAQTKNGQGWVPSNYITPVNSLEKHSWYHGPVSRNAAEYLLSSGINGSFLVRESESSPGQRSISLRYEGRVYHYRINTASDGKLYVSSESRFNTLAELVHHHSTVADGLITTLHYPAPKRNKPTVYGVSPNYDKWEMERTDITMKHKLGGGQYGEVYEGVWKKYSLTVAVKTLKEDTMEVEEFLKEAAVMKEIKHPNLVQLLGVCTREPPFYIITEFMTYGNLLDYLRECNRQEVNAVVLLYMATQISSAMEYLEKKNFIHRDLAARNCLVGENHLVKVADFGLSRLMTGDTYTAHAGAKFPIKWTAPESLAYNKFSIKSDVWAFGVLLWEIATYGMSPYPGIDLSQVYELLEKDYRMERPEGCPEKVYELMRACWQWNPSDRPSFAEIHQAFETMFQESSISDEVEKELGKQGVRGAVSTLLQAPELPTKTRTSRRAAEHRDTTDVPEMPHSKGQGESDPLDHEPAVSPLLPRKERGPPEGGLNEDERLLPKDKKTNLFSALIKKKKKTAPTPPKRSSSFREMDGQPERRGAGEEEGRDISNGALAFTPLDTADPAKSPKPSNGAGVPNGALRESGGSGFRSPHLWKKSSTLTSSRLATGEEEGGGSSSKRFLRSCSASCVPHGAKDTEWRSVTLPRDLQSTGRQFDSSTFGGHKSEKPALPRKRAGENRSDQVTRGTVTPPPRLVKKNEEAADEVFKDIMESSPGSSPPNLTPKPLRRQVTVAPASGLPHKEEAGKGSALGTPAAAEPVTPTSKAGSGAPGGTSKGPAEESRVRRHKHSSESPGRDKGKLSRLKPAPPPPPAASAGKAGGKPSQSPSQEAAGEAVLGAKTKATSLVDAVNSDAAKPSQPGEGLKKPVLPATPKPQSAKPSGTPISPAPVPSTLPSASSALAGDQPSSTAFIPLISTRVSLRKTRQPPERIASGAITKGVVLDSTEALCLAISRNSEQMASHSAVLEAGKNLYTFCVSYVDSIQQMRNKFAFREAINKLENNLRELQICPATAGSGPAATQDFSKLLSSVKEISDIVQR

- inhibition [1]: 98%
- IC50 [2]: 0.024 µM
- inhibition [3]: 87%
- inhibition [4]: 10%
- inhibition [5]: inactive
- inhibition [6]: inactive
- IC50 [7]: 0.1 µM
Compound: O=C(c1cc2cc(O)ccc2[nH]1)c1cc2c(Nc3ccc(F)c(Cl)c3)ncnc2s1
- IC50 [8]: 6.34 µM
- IC50 [9]: 5.97 µM
- IC50 [10]: 9.56 µM
- IC50 [11]: 7.58 µM
- IC50 [12]: 0.94 µM
- IC50 [13]: 7.69 µM
- IC50 [14]: 13.7 µM
- IC50 [15]: 6.01 µM
- IC50 [16]: 4.09 µM
- IC50 [17]: 7.26 µM
- IC50 [18]: 1.28 µM
- IC50 [19]: 7.04 µM
- IC50 [20]: 6 µM
- IC50 [21]: 3.25 µM
- IC50 [22]: 4.36 µM
- IC50 [23]: 2.65 µM
- IC50 [24]: 6.02 µM
- IC50 [25]: 4.87 µM
- IC50 [26]: 4.09 µM
- IC50 [27]: 4.22 µM
- IC50 [28]: 7.65 µM
- IC50 [29]: 5.89 µM
- IC50 [30]: 6.28 µM
- IC50 [31]: 6.02 µM
- IC50 [32]: 4.07 µM
- IC50 [33]: 9.08 µM
- IC50 [34]: 9.08 µM
- IC50 [35]: 8.85 µM
- IC50 [36]: 7.95 µM
- IC50 [37]: 5.61 µM
- IC50 [38]: 2.96 µM
- IC50 [39]: 3.01 µM
- IC50 [40]: 5.45 µM
- IC50 [41]: 9.59 µM
- IC50 [42]: 8.19 µM
- IC50 [43]: 9.23 µM
- IC50 [44]: 4.87 µM
- IC50 [45]: 5.87 µM
- IC50 [46]: 3.37 µM
- IC50 [47]: 8.2 µM
- IC50 [48]: 10.1 µM
- IC50 [49]: 3.45 µM
